Entries after “also recorded” stand apart in the source; their conditions may differ.

The values below come from patent US20090317376A1, “Compositions And Methods For Lipo Modeling” (Georgetown University MEDICAL SCHOOL, priority 2005, published 2009).

This assay concerns 3T3-L1 preadipocytes. As to the kind of experiment: Adipocyte differentiation / adipogenesis (Oil red-O staining, leptin and resistin ELISA). In kind it is cell-based, murine. Here is the method:
3T3-L1 preadipocytes are stimulated to differentiate to a rounded phenotype and accumulate lipids in the form of lipid droplets when treated with dexamethasone, isobutylmethylxanthine (IBMX), and insulin [54]. The 3T3-L1 cells are primed for differentiation by the incubation with IBMX and dexamethasone, and in some cells insulin, for 24 hrs, then, insulin is withdrawn and replaced with various concentrations of NPY (FIG. 5).
ELISA: NPY ELISA system are purchased from Penninsula Laboratories, bFGF, VEGF and mouse leptin ELISA kits from R&D systems, mouse adiponectin ELISA kit from Linco Research and catecholamine detection system—3CAT EIA from Diagnostic Systems Laboratories. The assays are performed according to the manufacturers' procedures.
Oil Red O staining: Oil Red O solution (0.36% Oil Red O solution in 60% isopropanol) is used to stain lipid droplets in mature adipocytes and paraffin embedded tissues (Chemicon Adipogenesis Assay kit).
1. Cell culture: 3T3-L1 preadipocyte cells, (gift from Dr. Lane,^34) were cultured in DMEM high glucose media with glutamine, 10% calf sera (Gemini Bioproducts), d-Biotin (8 μg/ml) and Pantothenate (8 μg/ml) (Sigma). SK-N-BE(2) neuroblastoma cells (ATCC) were cultured in EMEM/F12K with 10% fetal bovine sera (FBS). HMVEC endothelial cells (Cambrex) were cultured in endothelial cell growth media (Cambrex). All media was supplemented with 100 units/ml penicillin, 100 μg/ml streptomycin and […] amphotericin. 2. Proliferation assay: Cells were plated onto 96-well dishes, growth-arrested in serum-free media for 24 h, and then were treated with the desired factors for 24 h in the culture media supplemented with 0.25% FBS; 4 hr after treatment 0.5 μCi [^3H] thymidine was added to each well. After 24 h, cells were harvested in a 96-well harvester (Tomtec) and counted in a Betaplate Liquid Scintillation Counter (Wallac). 3. Co-culture: For mitogenic assay and expression studies, co-culture was performed in a Costar Transwell system. Cells were plated on 6-well plates or inserts with 0.4 μm Polyester membranes. At 30% confluence, the inserts were combined with wells containing other cells. Co-culture of neuroblastomas with endothelial cells (EC) were carried out in EC media and preadipocytes in preadipocyte growth media. After the respective treatment, the cells growing on the plates were harvested for RNA isolation. For the mitogenic assay, cells were first growth-arrested in serum-free media for 24 hr, then the inserts placed into the plates and cells treated with desired factors in 0.25% FBS. After 48 hr, the cells were counted with a Beckman Coulter Counter. In both co-culture models, media was collected for Leptin (R&D Systems), Resistin (R&D Systems), and NPY (Bachem) ELISA. 4. Real-time RT-PCR: RNA was isolated using Tri Reagent (Sigma) and cDNA synthesized by iScript cDNA synthesis kit (BioRad). ICycler iQ Detection System (BioRad) was used to perform Real Time PCR. cDNA was amplified for 40 cycles using TaqMan PCR Reagent Kit and pre-designed primers and fluorescein-labeled probes from Applied Biosystems, as previously described^16, according to the manufacturer's procedure. The results were analyzed using software provided by BioRad and expression levels calculated by the comparative CT method using β-actin as an endogenous reference gene, according to the Applied Biosystems' ABI PRISM 7700 User Bulletin #2. 5. TUNEL: TUNEL reaction was performed using In Situ Cell Detection Kit (Roche Diagnostic) and signal converted to visible light using AP-converter. The density of TUNEL positive cells will be measured using NIH ImageJ software (using a plugin written by Wayne Rasband). 6. ELISA: ELISA kits for: NPY (Bachem Laboratories), mouse Leptin, Corticosterone, and Resistin (R&D systems), rat/mouse Insulin and mouse Adiponectin (Linco Research), and mouse Osteocalcin (Biomedical Technologies, Inc.) were used. The assays were performed according to the manufacturers' procedures. 7. […]

In the case of `N=C(N)NCCC[C@H](NC(=O)CC1(CC(=O)N2CCN(C3c4ccccc4NC(=O)c4ccccc43)CC2)CCCC1)C(=O)NCCn1c(=O)n(-c2ccccc2)n(-c2ccccc2)c1=O` (stereo partly drawn) [BIIE0246], under “Y2R antagonist”, the “block of NPY-induced leptin and resistin secretion and lipid filling” value is given as “blocked”.
For the molecule neuropeptide Y [NPY], the “adipogenesis in cells not originally primed by insulin” value (NPY by itself) is “unable to stimulate adipogenesis”. Further, the leptin secretion result (differentiated 3T3-L1 adipocytes) was “increases leptin secretion; also recorded: increased”. Also, the “differentiation into adipocytes (adipogenesis)” value (insulin preconditioned / primed 3T3-L1 cells, NPY 1×10-14 to 1×10^-8 M) is “stimulated differentiation into adipocytes; also recorded: stimulating adipogenesis”. For the same molecule, the resistin secretion entry (preadipocytes primed for differentiation) was “increased”. Moreover, the “lipid deposition / lipid filling (Oil red-O staining)” value (primed 3T3-L1 cells, insulin replaced with NPY) is on record as “markedly increased”.
